Test results published in publication PMC5711494, “Sterol methyltransferase a target for anti-amoeba therapy: towards transition state analog and suicide substrate drug design” (Journal of Lipid Research, 2017).
Like-named read-outs stand apart in the source and are kept apart here.

Legend:
Ac24-SMT = experiment: Substrate kinetics and product analysis with recombinant Ac24-SMT; assay type: biochemical, Acanthamoeba castellanii; settings: for product ratio generated by Ac24-SMT: normalized to cycloartenol at ∼70% conversion, saturating substrate, 45 min, 35°C
Procedure: (§1) The SMT constructs were transformed into competent BL21(DE3) cells and transformants selected against 100 µg/ml ampicillin. Expression of the SMT constructs and partial purification of the recombinant proteins followed the procedure described previously ([19]). […] In one tube, cells were induced by addition of isopropyl thio-galactoside at a final concentration of 1 mM and in the other tube, were un-induced. Cells were harvested 2 and 4 h after induction and an equal number of cells (as calculated by OD @600 nm) from induced (+) and un-induced (−) cultures were boiled with 1X Laemmli’s buffer and analyzed by SDS-PAGE (12%). Gel was stained with Coomassie Brilliant Blue (0.2%) to establish the molecular weight and purity of the expressed protein. Total protein concentrations were determined by Bradford dye-binding procedure with bovine γ-globulin as standard. To determine the catalytic activity of the recombinant proteins, enzyme assays were carried out using soluble bacterial extract (100,000 g fraction) in 9 ml test tubes containing a total of 600 µl assay volume for 45 min (initial velocity conditions). The assay buffer contained 20 mM phosphate buffer in 5% (v/v) glycerol at pH 7.5, sterol acceptor emulsified in 12 µl Tween 80 (1.2 g/l), and the substrate tested over the concentration range 5 to 150 µM against 1.2 mg of total protein. The reaction was initiated by the addition of saturating levels of [methyl-^3H3]SAM, 0.9 µCi, at 150 µM. Incubation mixtures were saponified with methanolic potassium hydroxide and extracted with hexane (3 × 1 ml) and concentrated to dryness providing the nonsaponifiable lipid fraction; radioactivity was determined by liquid scintillation counting. […]

Ac28-SMT = experiment: Substrate kinetics and product analysis with recombinant Ac28-SMT; assay type: biochemical, Acanthamoeba castellanii; parameters: catalytic competence (kcat/Km) with Ac28-SMT: unit not given here; settings: for product ratio generated by Ac28-SMT: normalized, saturating substrate, 45 min, 35°C
Procedure: as §1

TbSMT = tested on: TbSMT; parameters: method as in PMID 26496686; settings: cited from earlier work
[1] = tested on: Acanthamoeba castellanii trophozoites sterol biosynthesis; experiment: Sterol composition of treated Ac trophozoites (GC/MS); assay type: cell-based; settings: to 48 h
Procedure: Amoeba and HEK cells were harvested at one or more points during growth in the presence and absence of steroidal inhibitor and azole at IC50 or MACs of the inhibitor or at 40 µM for HEK cells. Cell pellets were split with an internal standard of known amounts of 5α-cholestane added to one of the cell pellets for determination of sterol amounts in cells. Cells were saponified directly in aqueous methanolic potassium hydroxide at the reflux temperature for 1 h, which yielded total sterol (free plus sterol released from ester bonds). The resulting neutral lipids obtained by dilution with water and extraction with hexane (Fisher) were analyzed by GC/MS or HPLC-equipped with a diode array detector against cholesterol as a chromatographic reference. GC and HPLC retention times of sterols were compared with those obtained from authentic standards in our steroid collection ([18]–[22]). To determine the trophozoite sterol metabolome, GC/MS analysis of cell pellet nonsaponfiables was typically carried out using control cultures incubated in 5 ml medium in 25 ml T-flasks inoculated with 1 × 10^4 trophozoites/ml and cultured for 72 h. To generate significant cell pellets for sterol analysis of treated cells, trophozoites were cultured in 10 ml medium in 25 ml T-flasks inoculated with 1 × 10^5 cells/ml and grown for 48 h.

[2] = tested on: Acanthamoeba castellanii trophozoites (strain ATCC 30010); parameters: method as in PMID 26014948; settings: previously reported; read-out: IC50 for Ac growth, previously reported value; cited from earlier work
[3] = tested on: Acanthamoeba castellanii trophozoites (strain ATCC 30010); experiment: Ac trophozoite growth inhibition and minimum amoebicidal concentration (trypan blue exclusion); assay type: cell-based; settings: 48 h incubation
Procedure: Ac strain ATCC 30010 was inoculated (1 × 10^4 cells/ml) into tissue culture T-25 ml flasks, prepared with ATTC media 712 and cultured axenically in 5 ml medium at 25°C. Continuous cultures populated by trophozoites ([…]; the remaining cells were cysts) was maintained by sub-culturing 4–5 day growth arrested cells (1 × 10^6 cells/ml) into fresh medium. Steroidal inhibitor and azole susceptibility assays were performed in 24-well (4 × 6) microtiter plates (3 ml total). Trophozoite assay conditions and preparation of stock solutions made to 1 μg/10 μl and 1 μg/100 μl in DMSO through serial dilution to achieve final inhibitor concentrations of 64, 32, 16, 8, 4, 2, 1, 0.5, 0.25, 0.125, 0.0625, and 0.03125 µg/ml in 1% DMSO as reported previously for voriconazole incubated with Ac ([25]). Growth curves to evaluate treated trophozoites were initiated with 1 × 10^6 cells/ml and incubated for 48 h. Cell number was calculated with the use of a hemocytometer. The percentage of viable trophozoites following exposure to different concentrations of inhibitors was determined by the standard trypan blue exclusion method. Cells stained blue were considered nonviable. […] The IC50 of inhibitors against trophozoite growth was evaluated using GraphPad Prism with default setting (GraphPad Software Inc., CA).

Molecule | product ratio generated by Ac24-SMT (Ac24-SMT) | product ratio generated by Ac28-SMT (Ac28-SMT) | other results
CC(C)=CCCC(C)C1CC[C@@]2(C)C3=C(CCC12C)C1(C)CCC(O)CC1CC3 (stereo partly drawn) [14α-methylzymosterol] | 97 | 26 | 
C=C(CCC(C)C1CCC2(C)C3CCC4C(C)(C)C(O)CCC45CC35CCC12C)C(C)C (stereo not drawn) [24(28)-methylenecycloartanol] | 0 | 0 | 
C=C(CCC(C)C1CCC2C3=CCC4C(C)C(O)CCC4(C)C3CCC21C)C(C)C (stereo not drawn) [24(28)-methylenelophenol] | 0 | 100 | Km as substrate of Ac28-SMT (Ac28-SMT; from Lineweaver-Burk plots): ~25 µM; catalytic competence (kcat/Km) with Ac28-SMT (Ac28-SMT; from Lineweaver-Burk plots): ~0.03; kcat as substrate of Ac28-SMT (Ac28-SMT; from Lineweaver-Burk plots): ~0.013 s⁻¹
CC(=CCC[C@@H](C)[C@H]1CC[C@H]2C3=CC=C4C[C@@H](O)CC[C@]4(C)[C@H]3CC[C@]12C)CF [26-flourocholesta-5,7,24-trieniol] |  |  | partition ratio against TbSMT (TbSMT): 3
CC(C)=CCCC(C)C1CC[C@@]2(C)C3=C(CCC12C)C1(C)CCC(O)[C@@H](C)C1CC3 (stereo partly drawn) [31-norlanosterol] | 100 | 49 | 
CC(C)=CCCC(C)C1CCC2C3=CC=C4CC(O)CCC4(C)C3CCC21C (stereo not drawn) [cholesta-5,7,24-trienol] | 100 | 50 | 
CC(C)=CCC[C@@H](C)[C@H]1CC[C@@]2(C)[C@@H]3CC[C@H]4C(C)(C)[C@@H](O)CC[C@@]45C[C@@]35CC[C@]12C [cycloartenol] | 100 | 67 | Km (Michaelis / binding constant) as substrate of Ac24-SMT (Ac24-SMT; saturating SAM 150 µM, initial velocity conditions): ~44 µM; kcat (turnover rate) as substrate of Ac24-SMT (Ac24-SMT; saturating SAM, initial velocity conditions): about 1.5 min^−1
C=C(CC[C@@H](C)[C@H]1CC[C@@]2(C)[C@@H]3CC[C@H]4[C@H](C)[C@@H](O)CC[C@@]45C[C@@]35CC[C@]12C)C(C)C [cycloeucalenol] | 0 | 0 | 
C=C(CCC(C)C1CCC2C3=CCC4CC(O)CCC4(C)C3CCC21C)C(C)C (stereo not drawn) [episterol] | 0 | 64 | 
C=C(CCC(C)C1CCC2C3=C(CCC21C)C1(C)CCC(O)CC1CC3)C(C)C (stereo not drawn) [fecosterol] | 0 | 29 | 
CC(C)=CCC[C@@H](C)[C@H]1CC[C@@]2(C)C3=C(CC[C@]12C)[C@@]1(C)CC[C@H](O)C(C)(C)[C@@H]1CC3 [lanosterol] | 100 | 15 | 
C=C(CC[C@@H](C)[C@H]1CC[C@@]2(C)C3=C(CC[C@]12C)[C@@]1(C)CC[C@H](O)[C@@H](C)[C@@H]1CC3)C(C)C [obtusifoliol] | 0 | 0 | 
C[C@@H](c1ncncc1F)[C@](O)(Cn1cncn1)c1ccc(F)cc1F [voriconazole] |  |  | accumulation of substrate of the target enzyme in treated trophozoites [1]: ≤ 1 % total; IC50 [2]: 390 nM; MAC (complete inhibition of growth, minimum amoebicidal concentration) [3]: 3 µM; IC50 ([3]; Acanthamoeba castellanii, ATCC30010, Ac trophozoites): 140 nM
CC(C)=CCCC(C)C1CCC2C3=C(CCC21C)C1(C)CCC(O)CC1CC3 (stereo not drawn) [zymosterol] | 97 | 63 | 
eburicol | 0 | 0 | 
